Earlier results on 1 molecule are cited in patent publication US11872314B2, “Pharmaceutical compositions” (Shin Nippon Biomedical Laboratories, Ltd., priority 2016, dated 2024).

The conditions of the data set: at 25° C.

On to `COc1ccc2c(c1)c(CC(=O)O)c(C)n2C(=O)c1ccc(Cl)cc1` [Indomethacin, indomethacin], for which the Water solbility is 0.937 µg/mL.
